{"source": "patent US12594271B2", "about": "“Combination therapy for cancer” (Health Research, Inc., priority 2019, dated 2026)", "key": {"[1]": {"tested_on": "AT-3 tumor cells", "assay": "AT-3 orthotopic mammary tumor model: tumor growth and splenic flow cytometry", "format": "in vivo, mice", "experimental": "(§1) Treatment of Tumor-Bearing Mice Alters Surface Phenotype of Myeloid Cells. […] Female BALB/c or C57BL/6 mice were orthotopically implanted with 4T1 or AT-3 mammary tumor cells, respectively, and were monitored 3 times weekly for tumor growth. When tumors became measurable (indicated by the arrow), BRQ was administered daily (10 mg/kg intraperitoneally), and at endpoint the BM cells or spleens were collected for flow cytometric analysis for the expression (i.e., percentage or MFI value) of the indicated cell surface markers (FIGS. 13-15). We extended our in vitro studies with BRQ to […] to determine the impact of BRQ on MDSC maturation. To that end, mice bearing orthotopically implanted mammary tumors were treated with or without BRQ in vivo using a similarly previously reported dose, frequency and schedule (Sykes et al. Cell 167:171-186, 2016). The first tumor model chosen was 4T1, which is an aggressive mammary tumor cell line that induces a robust MDSC response largely comprised of PMN-MDSCs.\nFemale C57BL/6 mice were orthotopically implanted with AT-3 tumor cells and were monitored 3 times weekly for tumor growth. When tumors became measurable, BRQ was administered daily (10 mg/kg intraperitoneally), and at endpoint the spleens were collected and analyzed by flow cytometry for the indicated cell surface markers. Tumor growth is shown in the upper panel of FIG. 16 while representative flow cytometry data is shown in the lower panel."}, "[2]": {"tested_on": "4T1 tumors cells", "assay": "4T1 orthotopic mammary tumor model: tumor growth and spontaneous lung metastases", "format": "in vivo, mice", "conditions": "BRQ 10 mg/kg i.p. daily", "experimental": "FIG. 1. […] (A) 4T1 growth in mice treated daily with BRQ (10 mg/kg, i.p.), anti-PD-1 ([…], i.p. at the indicated 3 or 4 times) or both agents. n=5 mice/group/experiment for upper and lower graphs; *P<0.01 against single-agent treatments. B-D, data shown are for analysis of A, upper graph. (B) Spontaneous metastatic lung counts; *P<0.01. Similar patterns seen in the 2nd experiment (avg. #mets): vehicle=12; BRQ=1; αPD-1=5; combo=1. (C) Splenic granulocytic (CD11b^+Ly6C^loLy6G^+) or monocytic (CD11b^+Ly6C^hiLy6G^−) numbers in non-tumor-bearing (NTB) or tumor-bearing mice were converted to a ratio for group-by-group comparison; *P<0.03. (D) Splenic CD3^+ T cell numbers in tumor-bearing mice. (E) Splenic CD8^+ T cells in A (lower graph) were assayed based on differential expression of CD44:naïve ([…]) vs. effector/central memory (hi) phenotypes. *P<0.03. Data reported as a ratio to indicate a rising memory pool. […]\nTreatment of Tumor-Bearing Mice Alters Surface Phenotype of Myeloid Cells. […] Female BALB/c or C57BL/6 mice were orthotopically implanted with 4T1 or AT-3 mammary tumor cells, respectively, and were monitored 3 times weekly for tumor growth. […]\nEffect of Treatment of Tumor-Bearing Mice with BRQ on the Efficacy of Anti-Tumor Immunotherapy. […] At endpoint, BM cells or spleens were collected and analyzed for the indicated populations by flow cytometry. […]"}, "[3]": {"tested_on": "myeloid cells and T cells of 4T1 tumor-bearing mice", "assay": "Flow cytometry of spleen, bone marrow and tumor cells from 4T1 tumor-bearing mice", "format": "in vivo", "experimental": "FIG. 1. […] (A) 4T1 growth in mice treated daily with BRQ (10 mg/kg, i.p.), anti-PD-1 ([…], i.p. at the indicated 3 or 4 times) or both agents. n=5 mice/group/experiment for upper and lower graphs; *P<0.01 against single-agent treatments. B-D, data shown are for analysis of A, upper graph. (B) Spontaneous metastatic lung counts; *P<0.01. Similar patterns seen in the 2nd experiment (avg. #mets): vehicle=12; BRQ=1; αPD-1=5; combo=1. (C) Splenic granulocytic (CD11b^+Ly6C^loLy6G^+) or monocytic (CD11b^+Ly6C^hiLy6G^−) numbers in non-tumor-bearing (NTB) or tumor-bearing mice were converted to a ratio for group-by-group comparison; *P<0.03. (D) Splenic CD3^+ T cell numbers in tumor-bearing mice. (E) Splenic CD8^+ T cells in A (lower graph) were assayed based on differential expression of CD44:naïve ([…]) vs. effector/central memory (hi) phenotypes. *P<0.03. Data reported as a ratio to indicate a rising memory pool. Data in B-E are at endpoint; ns, not significant.\nas §1\nThe upper panels of FIG. 14 are representative flow cytometry plots of the non-tumor-bearing (NTB) or tumor-bearing cohorts without (vehicle) or with BRQ. The middle panel histogram represents CD101 expression on the gated (boxed) populations of the upper panels. In this case, the far-right histograms refer to the gated-boxed right dot plot (for the PMN or granulocytic subset), whereas the gated-boxed left histogram refers to the gated-boxed upper left dot plot (for the monocytic subset). […] FIG. 15 refers to the quantification of the CD101 data from non-tumor-bearing mice or tumor-bearing mice with or without BRQ, based on both the CD101 MFI values and the percentages of CD101^+ (or high-expressing) cells reflecting the monocytic subset (upper left histogram and middle left table) or the PMN-MDSC subset (upper right histogram and middle right table). The quantification appears in the lower left and right graphs. Each point represents an individual mouse.\nEffect of Treatment of Tumor-Bearing Mice with BRQ on the Efficacy of Anti-Tumor Immunotherapy. […] At endpoint, BM cells or spleens were collected and analyzed for the indicated populations by flow cytometry. These experiments sought to determine whether BRQ can act in the bone marrow environment. […] The frequency of these cells approached levels seen in the non-tumor-bearing controls. […] Moreover, analysis of the systemic impact of BRQ on T cell numbers and their activation/memory state was performed on splenic population at endpoint (FIG. 20). […] This analysis at the time was not performed on cohorts treated with anti-PD-1 mAb alone or the combination, since the intent was to focus on the effect of BRQ on T cell numbers and their phenotypic states.\nTreatment of Tumor-Bearing Mice with BRQ Increases the Proliferative Capacity and Activation of Intra-Tumoral T Cells. Experimental design is as described in FIG. 12. […]"}, "[4]": {"conditions": "4T1, BRQ 10 mg/kg i.p. daily, spleen"}, "[5]": {"conditions": "4T1 tumor-bearing mice, endpoint"}}, "note": "Entries after “also recorded” stand apart in the source; their conditions may differ."}
{"smiles": "Cc1c(-c2ccc(-c3ccccc3F)cc2)nc2ccc(F)cc2c1C(=O)O", "note": "[BRQ, 6-Fluoro-2-(2′-fluoro-[1,1′-biphenyl]-4-yl)-3-methylquinoline-4-carboxylic acid]", "values": [{"measurement": "Ly6C expression on the granulocytic (PMN-MDSC) subset", "setting": "[1]; AT-3-bearing mice, spleen", "result": "significantly increased the expression of Ly6C"}, {"measurement": "Ly6C or Ly6G expression on the monocytic subset", "setting": "[1]; AT-3-bearing mice, spleen", "result": "no significant changes"}, {"measurement": "Ly6G expression on the surface of granulocytes", "setting": "[1]; AT-3-bearing mice, spleen", "result": "increased the expression of Ly6G"}, {"measurement": "AT-3 tumor growth", "setting": "[1]; C57BL/6 mice, BRQ 10 mg/kg i.p. daily", "result": "minimal effects on inhibiting tumor growth"}, {"measurement": "Spontaneous metastatic lung counts (avg. #mets)", "setting": "[2]; 2nd experiment, anti-PD-1 200 μs i.p. 3 or 4 times, endpoint", "result": 1}, {"measurement": "4T1 tumor growth", "setting": "[2]; BALB/c mice, anti-PD-1 200 μg i.p.", "result": "little effect on tumor growth; also recorded: only a nominal effect on primary tumor growth"}, {"measurement": "CD101 expression on splenic granulocytic populations", "setting": "[3]; 4T1, BRQ 10 mg/kg i.p. daily", "result": "significantly increased CD101 expression"}, {"measurement": "accumulation of the granulocytic population in the spleen", "setting": "[3]; 4T1, BRQ 10 mg/kg i.p. daily", "result": "did not significantly alter"}, {"measurement": "Ly6C expression on granulocytic cells", "setting": "[3]; [4]", "result": "significantly higher expression of the cell surface Ly6C"}, {"measurement": "Ly6G expression on granulocytic cells", "setting": "[3]; [4]", "result": "trended upward but did not reach statistical significance"}, {"measurement": "tumor-driven expansion of myeloid progenitor populations GMP or GP in bone marrow", "setting": "[3]; 4T1, endpoint", "result": "reduced tumor-driven expansion"}, {"measurement": "accumulation of CD11b+Gr-1+ cells in bone marrow", "setting": "[3]; 4T1, vs vehicle controls", "result": "reduced the accumulation of CD11b^+Gr-1^+ cells"}, {"measurement": "splenic granulocyte to monocyte ratio", "setting": "[3]; 4T1 tumor-bearing mice vs non-tumor-bearing controls, endpoint", "result": "significantly altered the granulocyte to monocyte ratio resembling the non-tumor-bearing controls"}, {"measurement": "splenic CD3+ T cell numbers", "setting": "[3]; [5]", "result": "did not alter; also recorded: no negative effect"}, {"measurement": "splenic CD8+ T cell memory populations (ratio of memory to naïve T cells by CD44)", "setting": "[3]; [5]", "result": "did not alter; also recorded: no negative effect"}, {"measurement": "CD44 expression on intratumoral CD8+ and CD4+ T cells", "setting": "[3]; tumor tissue at endpoint", "result": "Increases in CD44 expression were similarly observed"}, {"measurement": "proliferative capacity of intratumoral CD8+ and CD4+ T cells (percentages of Ki-67+ cells)", "setting": "[3]; tumor tissue at endpoint", "result": "significant increases in the proliferative capacity"}]}
